One data set has as its target TYK2 (Homo sapiens, UniProt P29597). The data set is described as follows: Kinase activity test (γ33P-ATP isotopic method), TYK2. It counts as biochemical. Conditions: 33P-ATP 10 μM, 2 h reaction. The protocol: (§1) This experiment adopted a γ^33p-ATP isotopic test method to test the inhibitory effect of a compound on kinases JAK1, JAK2, JAK3 and TYK2, and obtained a half inhibitory concentration IC50 of the compound for inhibiting activity of the kinase.
(§2) 20 mM 4-hydroxyethylpiperazine ethanesulfonic acid buffer (Hepes, pH 7.5), 10 mM magnesium chloride (MgCl2), 1 mM ethylene glycol diethyl ether diamine tetraacetic acid (EGTA), 0.02% dodecyl polyethylene glycol ether (Brij35), 0.02 mg/ml bovine serum albumin (BSA), 0.1 mM sodium vanadate (Na3VO4), 2 mM dithiothreitol (DTT), and 1% dimethylsulfoxide (DMSO).
(§3) A compound is dissolved with 100% DMSO to a specific concentration, and then subjected to gradient dilution by an automatic sampling device to obtain the samples to be tested with different concentrations (DMSO solutions).
(§4) 3.1 diluting the reaction substrate with the basic reaction buffer;
(§5) 3.2 adding the kinase into the substrate solution, and gently mixing well;
(§6) 3.3 adding, by the automatic sampling system, the 100% DMSO diluted compounds with different concentrations into the kinase solution, and incubating for 20 min at room temperature; and
(§7) 3.4 adding ^33p-ATP (10 μM, 10 μCi/μl) at room temperature to initiate the kinase reaction for a duration of 2 h.
(§8) The unreacted ATP and the reaction-generated […] in the reaction were removed by an ion exchange filtering system, and then the amount of radioactivity of ^33p isotope in the substrate was detected.
(§9) According to the amount of radioactivity, the kinase activities in the systems added with the inhibitors of different concentrations were calculated, to obtain the inhibitors' effects of the compounds of different concentrations on the kinase activity; and fitting was performed with graphpad prism to obtain the inhibitory IC50 values of the compounds.

For the next data set, the target named is T1, JAK3 (Homo sapiens, UniProt P52333).
T1 sequence (P52333 1-1124): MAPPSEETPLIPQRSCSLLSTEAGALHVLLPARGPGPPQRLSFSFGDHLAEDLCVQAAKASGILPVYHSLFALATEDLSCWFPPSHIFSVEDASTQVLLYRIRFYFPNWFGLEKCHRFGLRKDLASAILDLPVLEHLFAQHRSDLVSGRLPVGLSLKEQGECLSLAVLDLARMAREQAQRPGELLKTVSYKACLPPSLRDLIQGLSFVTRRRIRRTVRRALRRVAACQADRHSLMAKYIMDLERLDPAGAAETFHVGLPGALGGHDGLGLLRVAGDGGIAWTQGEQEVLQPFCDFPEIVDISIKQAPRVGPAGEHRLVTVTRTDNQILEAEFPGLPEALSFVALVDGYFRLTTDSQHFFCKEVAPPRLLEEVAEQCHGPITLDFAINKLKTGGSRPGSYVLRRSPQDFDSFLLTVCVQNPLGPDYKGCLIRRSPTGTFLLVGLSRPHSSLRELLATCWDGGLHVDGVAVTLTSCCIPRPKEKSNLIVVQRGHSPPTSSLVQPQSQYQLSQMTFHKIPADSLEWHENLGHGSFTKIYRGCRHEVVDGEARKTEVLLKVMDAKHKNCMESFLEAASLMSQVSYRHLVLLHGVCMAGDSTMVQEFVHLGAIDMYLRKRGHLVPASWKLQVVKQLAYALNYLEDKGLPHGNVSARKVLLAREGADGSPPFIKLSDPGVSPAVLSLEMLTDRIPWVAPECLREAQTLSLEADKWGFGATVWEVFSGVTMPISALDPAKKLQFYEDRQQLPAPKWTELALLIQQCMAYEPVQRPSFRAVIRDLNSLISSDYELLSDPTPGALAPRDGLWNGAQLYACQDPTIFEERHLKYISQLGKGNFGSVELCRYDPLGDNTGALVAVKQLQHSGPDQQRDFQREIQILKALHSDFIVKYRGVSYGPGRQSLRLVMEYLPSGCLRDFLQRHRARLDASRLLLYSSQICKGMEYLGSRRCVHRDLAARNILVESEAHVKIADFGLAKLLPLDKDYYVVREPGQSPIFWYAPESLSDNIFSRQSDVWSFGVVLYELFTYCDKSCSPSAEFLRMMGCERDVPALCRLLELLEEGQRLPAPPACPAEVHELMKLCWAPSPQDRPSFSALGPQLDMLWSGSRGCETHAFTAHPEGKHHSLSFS
The data set is described as follows: Kinase activity test (γ33P-ATP isotopic method), JAK3. Format: biochemical. The settings on record: 33P-ATP 10 μM, 2 h reaction. The procedure:
as §1, §2, §3, §4, §5, §6, §7, §8, §9

Another data set addresses JAK1 (Homo sapiens, UniProt P23458). The data set is described as follows: Kinase activity test (γ33P-ATP isotopic method), JAK1. Format: biochemical. Conditions: for IC50: 33P-ATP 10 μM, 2 h reaction; for activity in inhibiting the JAK1 kinase compared with Tofacitinib (in words): conclusion from Table 1. The procedure: as §1, §2, §3, §4, §5, §6, §7, §8, §9
A further data set deals with JAK2 (Homo sapiens, UniProt O60674). The data set is described as follows: Kinase activity test (γ33P-ATP isotopic method), JAK2. It counts as biochemical. The settings on record: 33P-ATP 10 μM, 2 h reaction. The procedure:
as §1, §2, §3, §4, §5, §6, §7, §8, §9

Data set [1] has as its system DSS induced mouse ulcerative colitis model. The data set is described as follows: Efficacy test in DSS induced mouse ulcerative colitis model. Format: in vivo. Conditions: once a day, mouse DSS model, DAI range 0-4. The source says: Mice of 6-7 weeks old were randomly grouped, 6 mice per group. Purified water was provided ad libitum to the mice in a negative control group, and a 2% solution of dextran sulfate sodium (DSS) was provided ad libitum to the mice in other groups, for 7 consecutive days. During the modeling, medication was given according to the groups, once a day for 7 days (the treatment groups and the mouse numbers can be adjusted according to the specific situation). Within 8-10 days later, the DSS-containing water was replaced with purified water, provided ad libitum to the mice. The normal administration continued for 3 days.
From the first day of administration, the general conditions such as metal state, eating, drinking and activities of the mice were respectively observed every day, the mice were weighed every day, and the animal stools were collected, evaluated for their traits and subjected to the occult blood test. The disease activity index (DAI) of experimental animals within 1-10 days were comprehensively assessed.
Scoring was performed according to the above-mentioned standards. The disease activity index (DAI) of each mouse was obtained by summing the scores of weight loss, stool trait and occult blood condition, to evaluate the disease activity. DAI=(score of weight loss+score of stool trait+score of bloody stool)/3, ranging from 0-4.
The experimental data was processed statistically, and the data are all expressed as mean±SD or mean±SME. The SPSS13.0 software was used for statistical analysis, and the differences among the groups were compared with t test (equal variance) or t′ test (unequal variance).

Data set [2] can be described thus: Liver microsome test (metabolic stability). Format: in vitro ADME, human. Conditions: human liver microsomes 0.5 mg/mL protein, compound 1 μmol/L, 37° C. The procedure:
In an incubation system with a total volume of 250 μL, an incubation solution of hum an liver microsomes containing 0.5 mg/mL protein was formulated with a 50 mmol/L PBS buffer (pH=7.4). Before the start of incubation, 2.5 μL of a 100 μmol/L compound to be tested was mixed with 197.5 μL of the above incubation buffer, pre-incubated for 5 min in a 37° C. water bath, and then added with 50 μL of a reducing coenzyme II solution (5 mmol/L) that was likewise pre-incubated for 5 min to start a reaction (in the reaction system, the protein content of liver microsomes from various species was 0.5 g/L, and the final concentration of the compound to be tested was 1 μmol/L), incubated in a 37° C. water bath with shaking, and taken out at 0, 5, 15, 30, and 60 min respectively. 600 μL of a methanol solution of mixed positive and negative internal standards with internal standards Terfenadine (positive ion internal standard, 25 ng/mL) and Tolbutamide (negative ion internal standard, 50 ng/mL) was immediately added to terminate the reaction. The incubation solution after termination was shaken for 2 min and centrifuged (4° C., 16000 r/min) for 10 min, and the supernatant was taken for LC-MS/MS detection to quantitatively analyze the remaining amount of the parent drug. (DMSO=0.1%).
The concentration of the compound at 0 mi incubation was regarded as 100%, and the concentrations at other incubation time points were converted into the remaining percentages. The natural logarithm of the remaining percentage at each time point was linearly regressed against the incubation time, and the slope k was calculated. According to the formula T1/2=−0.693/k, the in vitro half-life was calculated. Clearance in liver microsomes (CLint (μL/min/mg protein)=Ln (2)*1000/T1/2 (min/Protein Conc (mg/ml)).
(Liver microsomes are a subcellular fraction often used to study metabolism.)

The subject of data set [3] is DNBS induced rat Crohn's disease model. The data set is described as follows: Therapeutic activity in DNBS induced rat Crohn's disease model. It counts as in vivo. The settings on record: G3, 10 mg/kg-QD, 7 days, mean±SD. On the set-up: rat colon ulcer area: unit not given beside the values. The procedure:
Male wistar rats of 4-5 weeks old were adaptively fed for 5 days, and two days before the experiment, randomly divided into 6 groups:
Blank control group: G1 (Normal), 4 normal rats were selected and only given with 30% ethanol, 10 mL/kg.
0.5 mL of 50 mg/mL DNBS (DNBS dissolved in 30% ethanol) was injected into the colon of rats to induce enteritis in rats, for 40 rats in total. Eight of them were selected as model group G2 (Model), and the remaining 32 rats were administrated.
Administration group: the rats with DNBS induced enteritis were administered with ABT494 and the compound of Example 2 respectively and divided into G3-G6 groups, 8 rats/group. G3: ABT494, 10 mg/kg-QD; G4: Example 2, 0.3 mg/kg-BID; G5: Example 2, 1 mg/kg-BID; and G6: Example 2, 3 mg/kg-BID.
The rats were fasted, but fed with water for 48 hours, and a 5% glucose salt solution (10 mL/kg) was used as an energy supplement for experimental animals during the fasting period, once a day. On the day of experimental modeling, the fasting rats were anesthetized with Choutet (25 mg/kg), and then 0.5 mL of 50 mg/mL DNBS was injected from the anus to left colic flexure of the rat (about 8 cm to the anus) to induce rat enteritis. All rats were kept in a […] for 15 min until they were awaken, to prevent the backflow of DNBS. From the day of the experimental modeling, medication was given for 7 days.
After the DNBS modeling, the weights of the animals were measured and recorded every day, the daily activities of the animals were observed, and the abnormalities were recorded. During the experiment, the stool state of the rats was scored every day. On day 7, the rats were anesthetized with isoflurane (3-5%), blood was taken from the orbit, and the serum was separated and stored at −80° C. All animals were euthanized by cervical vertebra dis location after suffocation from excessive CO2 inhalation. The abdomen was cut, the colorectum was take out and longitudinally dissected, and the stool trait in the colorectum was scored. The colorectum was thoroughly rinsed with ice-cold PBS and then the ulcer surface was observed. The length and weight and ulcer area of the colon were recorded, the weight-length ratio (colon weight (g)/length (cm) ratio×100) was calculated, and the overall picture was taken. All intestinal tissue was longitudinally divided into two parts, where one part was fixed with 4% neutral […] and embedded with paraffin, and the rest colon sample was cryopreserved at −80° C.
Excel and Graphapad software were used for statistical analysis, and the results were expressed as mean±SD.

Molecules are shown by their SMILES.

Chain of TYK2 (P29597 whole entry): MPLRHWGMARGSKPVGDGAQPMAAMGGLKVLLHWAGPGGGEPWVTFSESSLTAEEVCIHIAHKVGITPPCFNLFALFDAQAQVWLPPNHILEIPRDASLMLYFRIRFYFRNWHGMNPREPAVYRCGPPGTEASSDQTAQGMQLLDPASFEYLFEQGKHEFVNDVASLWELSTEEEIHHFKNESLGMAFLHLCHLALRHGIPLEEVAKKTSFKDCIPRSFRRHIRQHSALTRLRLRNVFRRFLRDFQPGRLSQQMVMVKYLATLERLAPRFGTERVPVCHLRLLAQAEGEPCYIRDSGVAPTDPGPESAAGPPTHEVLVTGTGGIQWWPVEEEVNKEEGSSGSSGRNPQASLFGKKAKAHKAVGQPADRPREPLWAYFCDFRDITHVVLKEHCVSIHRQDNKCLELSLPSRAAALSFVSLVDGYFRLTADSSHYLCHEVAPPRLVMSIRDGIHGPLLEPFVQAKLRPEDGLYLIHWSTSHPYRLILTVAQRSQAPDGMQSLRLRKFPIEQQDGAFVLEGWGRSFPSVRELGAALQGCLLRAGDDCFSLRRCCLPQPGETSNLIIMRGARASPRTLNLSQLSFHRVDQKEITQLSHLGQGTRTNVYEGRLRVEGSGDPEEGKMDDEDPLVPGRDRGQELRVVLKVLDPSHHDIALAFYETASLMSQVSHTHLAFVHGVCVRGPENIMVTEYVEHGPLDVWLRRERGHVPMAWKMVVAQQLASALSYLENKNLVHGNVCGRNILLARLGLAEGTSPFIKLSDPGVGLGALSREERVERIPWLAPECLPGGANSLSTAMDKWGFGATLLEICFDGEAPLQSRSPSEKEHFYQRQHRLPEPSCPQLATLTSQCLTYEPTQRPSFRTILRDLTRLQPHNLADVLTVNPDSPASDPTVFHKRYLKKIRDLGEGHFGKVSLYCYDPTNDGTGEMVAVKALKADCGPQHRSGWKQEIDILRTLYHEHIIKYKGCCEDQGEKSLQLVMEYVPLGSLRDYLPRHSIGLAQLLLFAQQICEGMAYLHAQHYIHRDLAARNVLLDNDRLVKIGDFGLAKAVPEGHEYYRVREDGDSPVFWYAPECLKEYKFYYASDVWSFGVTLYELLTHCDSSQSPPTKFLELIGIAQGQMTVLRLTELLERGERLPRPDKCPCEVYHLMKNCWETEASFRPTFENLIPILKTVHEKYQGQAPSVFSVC
Chain of JAK1 (P23458 whole entry): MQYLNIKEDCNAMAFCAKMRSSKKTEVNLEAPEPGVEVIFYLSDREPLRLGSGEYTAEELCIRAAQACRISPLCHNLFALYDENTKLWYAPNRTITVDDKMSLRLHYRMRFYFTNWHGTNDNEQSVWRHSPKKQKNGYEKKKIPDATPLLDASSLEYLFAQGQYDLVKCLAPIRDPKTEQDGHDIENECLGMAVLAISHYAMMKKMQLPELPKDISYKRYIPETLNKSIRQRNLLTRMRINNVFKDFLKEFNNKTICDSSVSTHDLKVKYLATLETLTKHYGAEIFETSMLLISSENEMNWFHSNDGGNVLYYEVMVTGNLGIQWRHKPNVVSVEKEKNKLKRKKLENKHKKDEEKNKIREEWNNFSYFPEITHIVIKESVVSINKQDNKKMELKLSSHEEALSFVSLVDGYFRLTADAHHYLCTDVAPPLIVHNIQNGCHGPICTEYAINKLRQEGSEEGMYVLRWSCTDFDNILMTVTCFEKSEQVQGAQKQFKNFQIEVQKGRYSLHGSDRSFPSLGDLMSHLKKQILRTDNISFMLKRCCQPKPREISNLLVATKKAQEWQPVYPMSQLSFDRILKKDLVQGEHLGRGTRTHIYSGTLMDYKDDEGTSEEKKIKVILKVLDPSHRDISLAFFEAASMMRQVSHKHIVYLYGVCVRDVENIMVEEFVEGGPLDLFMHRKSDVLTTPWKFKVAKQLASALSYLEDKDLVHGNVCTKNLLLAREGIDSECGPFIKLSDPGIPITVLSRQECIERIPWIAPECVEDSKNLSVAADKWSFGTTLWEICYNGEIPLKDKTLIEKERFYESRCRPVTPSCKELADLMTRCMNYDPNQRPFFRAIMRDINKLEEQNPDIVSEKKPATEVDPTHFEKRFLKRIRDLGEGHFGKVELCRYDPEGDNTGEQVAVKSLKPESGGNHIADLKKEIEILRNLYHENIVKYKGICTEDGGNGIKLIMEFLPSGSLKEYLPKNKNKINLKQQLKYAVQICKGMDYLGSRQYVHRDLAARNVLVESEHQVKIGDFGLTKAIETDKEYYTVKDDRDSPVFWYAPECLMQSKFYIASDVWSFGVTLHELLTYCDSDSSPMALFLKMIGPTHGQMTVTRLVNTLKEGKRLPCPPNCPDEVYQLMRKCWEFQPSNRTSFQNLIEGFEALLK
Chain of JAK2 (O60674 whole entry): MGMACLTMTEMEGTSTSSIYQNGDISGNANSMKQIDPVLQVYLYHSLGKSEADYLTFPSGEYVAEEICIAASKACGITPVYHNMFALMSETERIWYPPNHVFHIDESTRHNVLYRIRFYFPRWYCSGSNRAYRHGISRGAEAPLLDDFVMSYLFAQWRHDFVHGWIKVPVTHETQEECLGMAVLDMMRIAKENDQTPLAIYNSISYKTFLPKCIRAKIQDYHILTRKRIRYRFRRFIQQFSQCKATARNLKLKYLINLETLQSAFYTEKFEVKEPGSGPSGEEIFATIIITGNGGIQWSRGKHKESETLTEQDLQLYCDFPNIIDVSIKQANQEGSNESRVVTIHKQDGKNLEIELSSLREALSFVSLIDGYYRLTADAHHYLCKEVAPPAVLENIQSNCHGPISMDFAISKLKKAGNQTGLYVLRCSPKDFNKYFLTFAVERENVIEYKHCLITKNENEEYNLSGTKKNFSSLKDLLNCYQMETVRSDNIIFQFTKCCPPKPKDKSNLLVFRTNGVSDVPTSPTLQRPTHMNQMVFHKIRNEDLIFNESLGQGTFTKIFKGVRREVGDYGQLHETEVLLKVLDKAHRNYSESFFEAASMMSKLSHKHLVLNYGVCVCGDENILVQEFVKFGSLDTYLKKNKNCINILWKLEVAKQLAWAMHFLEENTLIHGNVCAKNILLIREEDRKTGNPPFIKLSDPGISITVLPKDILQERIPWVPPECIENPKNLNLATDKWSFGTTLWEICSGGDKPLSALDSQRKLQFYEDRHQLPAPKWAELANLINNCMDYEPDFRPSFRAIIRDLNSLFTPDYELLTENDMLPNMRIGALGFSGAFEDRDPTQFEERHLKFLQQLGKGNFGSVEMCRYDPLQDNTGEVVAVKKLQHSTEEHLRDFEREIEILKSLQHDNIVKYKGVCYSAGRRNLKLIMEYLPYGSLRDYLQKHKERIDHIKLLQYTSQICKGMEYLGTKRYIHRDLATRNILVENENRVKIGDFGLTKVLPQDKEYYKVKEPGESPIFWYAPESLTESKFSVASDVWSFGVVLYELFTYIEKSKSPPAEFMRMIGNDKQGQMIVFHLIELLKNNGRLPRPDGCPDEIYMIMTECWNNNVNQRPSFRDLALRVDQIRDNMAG

What is called IC50 is the concentration needed to halve the response being measured. Turning to `CC(C)(C)OC(=O)N1CC2CN(Nc3c(C(N)=O)cnc4[nH]ccc34)CC2C1` (stereo not shown) [Example 12], the concentration for half-maximal inhibition (IC50) came to 19 nM against TYK2, 5.97 nM against JAK3, 1.1 nM on JAK1 and 16.7 nM at JAK2.

`Nc1ccc(O)c(C(=O)O)c1` [mesalazine, reference compound]: the “DAI score on day 8” value in data set [1] (100 mg/kg group) is on record as 3.5.

Usually half-life stands for the time in which the quantity being followed falls by half. `C[C@@H]1CCN(C(=O)CC#N)C[C@@H]1N(C)c1ncnc2[nH]ccc12` [Tofacitinib, reference compound]: the “DAI score on day 8” value in data set [1] (5 mg/kg group) is given as 3.5. Also, in data set [2] (60 min), the “Remaining % (60 min)” value stood at 80.7%. Besides, the half-life at 1 μmol/L in data set [2] (pH 7.4) came out at 3.3 h. Moreover, the microsomal CLint at 1 μmol/L in data set [2] (pH 7.4, read-out: Clint (μL/min/mg protein)) was determined as 7 µL/min/mg.

As to `NC(=O)c1cnc2[nH]ccc2c1NN1CCC[C@@H](C(=O)NCC(F)(F)F)C1` [Example 3, (R)-4-(3-(2,2,2-trifluoroethylcarbamoyl)piperidine-1-amino)-1H-7-azaindole-5-carboxamide], the IC50 at TYK2 stood at 9.93 nM; against JAK3, 8.69 nM; against JAK1 it was 0.41 nM; on JAK2, 11.6 nM. Moreover, on JAK1, the “activity in inhibiting the JAK1 kinase compared with Tofacitinib (in words)” value is “higher activity in inhibiting the JAK1 kinase than the positive drug control Tofacitinib”.

For `CC[C@@H]1CN(C(=O)NCC(F)(F)F)C[C@@H]1c1cnc2cnc3[nH]ccc3n12` [ABT494, reference compound], the colon weight-length ratio in data set [3] (colon weight (g)/length (cm) ratio×100, model group G2 14.6±5.1) is reported as 13.4±5.2. Also, the “rat colon ulcer area” value in data set [3] (model group G2 1.54±2.00) was determined as 1.37±1.72.

Turning to `N#CCNC(=O)[C@H]1CCCN(Nc2c(C(N)=O)cnc3[nH]ccc23)C1` [Example 7], the half-inhibitory concentration (IC50) against TYK2 stood at 1.98 nM; at JAK3 it was 0.71 nM; at JAK1 it was 0.39 nM; on JAK2, 1.32 nM. In addition, the “activity in inhibiting the JAK1 kinase compared with Tofacitinib (in words)” value on JAK1 was “higher activity in inhibiting the JAK1 kinase than the positive drug control Tofacitinib”.

On to `CCCNC(=O)[C@H]1CCCN(Nc2c(C(N)=O)cnc3[nH]ccc23)C1` [Example 5, (S)-4-(3-(n-propylcarbamoyl)piperidine-1-amino)-1H-7-azaindole-5-carboxamide], for which the IC50 against TYK2 amounted to 34.7 nM; against JAK3, 15.9 nM; against JAK1, 1.19 nM; on JAK2, 54.8 nM.

The values are drawn from patent US12304910B2, “Janus kinase (JAK) family inhibitor, preparation of same, and applications thereof” (JIANGSU VCARE PHARMATECH CO., LTD., priority 2019, dated 2025).
